Where a SMILES comes first, the peptide text is derived from it.
Assays:
[1] = biological target: Serine protease hepsin (Homo sapiens, UniProt P05981); test: Inhibition of human recombinant hepsin using Boc-QAR-AMC as substrate preincubated for 30 mins followed by substrate addition measured for 15 to 120 mins by plate reader analysis
[2] = biological target: T1, Suppressor of tumorigenicity 14 protein homolog (Mus musculus, UniProt P56677); test: Inhibition of mouse recombinant matriptase using Boc-QAR-AMC as substrate preincubated for 30 mins followed by substrate addition measured for 15 to 120 mins by plate reader analysis
T1 sequence (P56677 whole entry): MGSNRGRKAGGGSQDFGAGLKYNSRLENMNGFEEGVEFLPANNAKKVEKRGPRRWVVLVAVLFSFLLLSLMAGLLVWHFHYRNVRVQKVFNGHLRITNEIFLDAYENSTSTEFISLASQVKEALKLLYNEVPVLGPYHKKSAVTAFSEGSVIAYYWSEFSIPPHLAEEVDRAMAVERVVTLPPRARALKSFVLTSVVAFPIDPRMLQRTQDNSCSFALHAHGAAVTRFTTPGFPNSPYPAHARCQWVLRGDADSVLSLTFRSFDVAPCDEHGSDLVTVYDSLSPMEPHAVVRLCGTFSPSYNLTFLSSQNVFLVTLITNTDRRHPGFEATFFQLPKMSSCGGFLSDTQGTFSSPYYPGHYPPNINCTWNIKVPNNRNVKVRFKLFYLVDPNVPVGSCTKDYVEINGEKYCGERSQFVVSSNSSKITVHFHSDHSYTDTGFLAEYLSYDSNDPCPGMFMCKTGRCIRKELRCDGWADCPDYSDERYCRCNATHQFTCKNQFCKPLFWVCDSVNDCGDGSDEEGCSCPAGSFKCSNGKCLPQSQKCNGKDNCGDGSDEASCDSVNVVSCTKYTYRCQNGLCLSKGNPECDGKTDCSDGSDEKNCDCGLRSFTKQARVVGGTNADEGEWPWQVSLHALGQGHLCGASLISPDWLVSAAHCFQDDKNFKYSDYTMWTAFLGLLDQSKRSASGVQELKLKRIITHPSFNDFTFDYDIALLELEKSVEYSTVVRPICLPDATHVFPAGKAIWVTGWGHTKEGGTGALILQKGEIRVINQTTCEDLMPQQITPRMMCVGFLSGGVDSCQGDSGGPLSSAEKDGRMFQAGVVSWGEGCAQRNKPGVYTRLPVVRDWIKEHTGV

[3] = Selectivity ratio of Ki for mouse recombinant matriptase to Ki for human recombinant hepsin

Chain of Serine protease hepsin (P05981 1-162 limits assumed): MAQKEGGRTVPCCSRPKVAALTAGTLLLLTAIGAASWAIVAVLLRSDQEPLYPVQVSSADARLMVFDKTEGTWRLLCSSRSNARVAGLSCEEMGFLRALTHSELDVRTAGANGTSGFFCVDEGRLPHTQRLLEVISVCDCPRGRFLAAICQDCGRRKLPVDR
Chain of Serine protease hepsin (P05981 163-417 limits assumed): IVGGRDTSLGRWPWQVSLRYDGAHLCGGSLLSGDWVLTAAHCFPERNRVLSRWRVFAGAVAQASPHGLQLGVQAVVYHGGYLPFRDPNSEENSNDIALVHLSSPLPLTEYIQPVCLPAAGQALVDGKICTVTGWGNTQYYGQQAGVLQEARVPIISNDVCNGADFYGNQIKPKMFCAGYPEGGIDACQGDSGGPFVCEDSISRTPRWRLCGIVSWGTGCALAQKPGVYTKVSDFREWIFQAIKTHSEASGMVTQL

Ki [1]	Ki [2]	Ratio Ki [3]	Structure (SMILES)
22.4 nM	334 nM	8	CC(=O)N[C@@H](CC(C)C)C(=O)N[C@@H](CCCNC(=N)N)C(=O)c1nccs1
> 10000 nM	> 10000 nM	–	CC(=O)N[C@@H](CCCCN)C(=O)N[C@@H](CCC(N)=O)C(=O)N[C@@H](CC(C)C)C(=O)O (Ac-Lys-Gln-Leu-OH)
> 10000 nM	> 10000 nM	–	CC(=O)N[C@@H](CC(C)C)C(=O)N[C@@H](CCCNC(=N)N)C(=O)c1ccccc1
1.45 nM	10.4 nM	–	CC(=O)N[C@@H](CCCCN)C(=O)N[C@@H](CCC(N)=O)C(=O)N[C@@H](CC(C)C)C(=O)N[C@@H](CCCNC(=N)N)C(=O)c1nccs1
> 10000 nM	> 10000 nM	–	CC(=O)N[C@@H](CCCNC(=N)N)C(=O)c1nccs1
21.5 nM	246 nM	8	CC(=O)N[C@@H](CC(C)C)C(=O)N[C@H](CCCNC(=N)N)C(=O)c1nccs1
> 10000 nM	> 10000 nM	–	CC(=O)N[C@@H](CC(C)C)C(=O)N[C@H](CCCNC(=N)N)C(=O)c1ccccc1
2.91 nM	177 nM	> 60	CC(=O)N[C@@H](CC(C)C)C(=O)N[C@H](CCCNC(=N)N)C(=O)c1nc2ccccc2s1
1.04 nM	11.3 nM	8	CC(=O)N[C@@H](CCC(N)=O)C(=O)N[C@@H](CC(C)C)C(=O)N[C@@H](CCCNC(=N)N)C(=O)c1nccs1
3.38 nM	227 nM	> 60	CC(=O)N[C@@H](CC(C)C)C(=O)N[C@@H](CCCN=C(N)N)C(=O)c1nc2ccccc2s1
0.83 nM	8 nM	–	CC(=O)N[C@@H](CCCCN)C(=O)N[C@@H](CCC(N)=O)C(=O)N[C@@H](CC(C)C)C(=O)N[C@H](CCCNC(=N)N)C(=O)c1nccs1
2.88 nM	11.1 nM	8	CC(=O)N[C@@H](CCC(N)=O)C(=O)N[C@@H](CC(C)C)C(=O)N[C@H](CCCNC(=N)N)C(=O)c1nccs1
